Assay results from ChEMBL document CHEMBL1201862, “PubChem BioAssay data set” (2004).
Active and inactive are the calls of the source.

How the values were obtained:
[1] = target: T1, Sentrin-specific protease 8 (Homo sapiens, UniProt Q96LD8); experiment: inhibition of human SENP8 cleavage activity – biochemical, luminescence, SAR follow-up (AID 504501); type: functional
T1 sequence (Q96LD8 whole entry): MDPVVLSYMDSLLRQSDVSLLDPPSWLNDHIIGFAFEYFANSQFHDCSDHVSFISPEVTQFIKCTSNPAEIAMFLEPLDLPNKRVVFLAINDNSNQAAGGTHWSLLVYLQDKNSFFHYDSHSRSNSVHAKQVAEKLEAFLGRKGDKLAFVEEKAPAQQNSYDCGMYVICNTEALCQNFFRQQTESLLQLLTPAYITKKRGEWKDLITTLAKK

Caspase-3 = target: T2, Caspase-3 (Homo sapiens, UniProt P42574); experiment: SAR Analysis of small molecule inhibitors of Sentrin-specific proteases (SENPs) using a Caspase-3 Selectivity assay. [Related pubchem assays (depositor defined):AID2540, AID2599, AID434973, AID489001]; type: functional
T2 sequence (P42574 whole entry): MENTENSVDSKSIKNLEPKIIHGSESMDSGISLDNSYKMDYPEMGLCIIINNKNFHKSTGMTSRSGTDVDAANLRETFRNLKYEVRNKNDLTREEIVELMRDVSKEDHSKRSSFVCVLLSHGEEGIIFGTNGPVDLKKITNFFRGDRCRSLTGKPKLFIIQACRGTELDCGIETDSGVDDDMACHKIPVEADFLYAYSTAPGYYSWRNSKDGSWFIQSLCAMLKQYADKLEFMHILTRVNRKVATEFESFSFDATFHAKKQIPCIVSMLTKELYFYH

[2] = target: T3, Sentrin-specific protease 6 (Homo sapiens, UniProt Q9GZR1); experiment: SAR Analysis of small molecule inhibitors of Sentrin-specific protease 6 (SENP6) using a Luminescent assay. [Related pubchem assays (depositor defined):AID2582, AID2599]; type: functional
T3 sequence (Q9GZR1 whole entry): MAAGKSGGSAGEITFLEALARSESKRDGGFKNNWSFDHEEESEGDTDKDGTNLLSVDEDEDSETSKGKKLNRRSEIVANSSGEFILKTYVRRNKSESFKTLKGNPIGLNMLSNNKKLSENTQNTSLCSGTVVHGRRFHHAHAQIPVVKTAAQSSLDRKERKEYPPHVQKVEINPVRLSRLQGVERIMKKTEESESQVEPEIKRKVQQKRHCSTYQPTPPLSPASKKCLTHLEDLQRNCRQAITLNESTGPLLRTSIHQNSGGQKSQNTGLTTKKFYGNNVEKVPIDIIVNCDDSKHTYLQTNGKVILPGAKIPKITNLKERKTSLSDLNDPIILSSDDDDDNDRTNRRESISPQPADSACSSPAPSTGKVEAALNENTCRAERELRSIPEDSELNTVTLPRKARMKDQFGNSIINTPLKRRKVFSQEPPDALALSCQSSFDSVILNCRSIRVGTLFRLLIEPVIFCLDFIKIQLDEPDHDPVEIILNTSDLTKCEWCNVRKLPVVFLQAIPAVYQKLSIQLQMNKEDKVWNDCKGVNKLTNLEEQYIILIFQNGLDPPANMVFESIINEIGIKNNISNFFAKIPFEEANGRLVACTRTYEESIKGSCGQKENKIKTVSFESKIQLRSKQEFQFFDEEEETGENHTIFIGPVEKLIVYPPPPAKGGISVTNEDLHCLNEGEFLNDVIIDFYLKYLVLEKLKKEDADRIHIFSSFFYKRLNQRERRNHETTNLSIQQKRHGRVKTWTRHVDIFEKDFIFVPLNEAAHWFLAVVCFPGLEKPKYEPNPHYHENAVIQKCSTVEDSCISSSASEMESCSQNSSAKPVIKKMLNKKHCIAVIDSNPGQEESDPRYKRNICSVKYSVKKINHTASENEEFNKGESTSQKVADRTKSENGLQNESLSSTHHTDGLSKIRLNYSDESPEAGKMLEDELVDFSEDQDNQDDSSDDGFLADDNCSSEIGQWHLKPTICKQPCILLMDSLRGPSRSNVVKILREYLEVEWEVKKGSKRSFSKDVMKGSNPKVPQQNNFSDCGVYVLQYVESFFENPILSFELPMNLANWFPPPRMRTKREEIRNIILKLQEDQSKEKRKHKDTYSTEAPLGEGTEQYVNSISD

[3] = target: T4, Sentrin-specific protease 7 (Homo sapiens, UniProt Q9BQF6); experiment: inhibition of human SENP7 cleavage activity – biochemical, luminescence, SAR follow-up (AID 504497); type: functional
T4 sequence (Q9BQF6 whole entry): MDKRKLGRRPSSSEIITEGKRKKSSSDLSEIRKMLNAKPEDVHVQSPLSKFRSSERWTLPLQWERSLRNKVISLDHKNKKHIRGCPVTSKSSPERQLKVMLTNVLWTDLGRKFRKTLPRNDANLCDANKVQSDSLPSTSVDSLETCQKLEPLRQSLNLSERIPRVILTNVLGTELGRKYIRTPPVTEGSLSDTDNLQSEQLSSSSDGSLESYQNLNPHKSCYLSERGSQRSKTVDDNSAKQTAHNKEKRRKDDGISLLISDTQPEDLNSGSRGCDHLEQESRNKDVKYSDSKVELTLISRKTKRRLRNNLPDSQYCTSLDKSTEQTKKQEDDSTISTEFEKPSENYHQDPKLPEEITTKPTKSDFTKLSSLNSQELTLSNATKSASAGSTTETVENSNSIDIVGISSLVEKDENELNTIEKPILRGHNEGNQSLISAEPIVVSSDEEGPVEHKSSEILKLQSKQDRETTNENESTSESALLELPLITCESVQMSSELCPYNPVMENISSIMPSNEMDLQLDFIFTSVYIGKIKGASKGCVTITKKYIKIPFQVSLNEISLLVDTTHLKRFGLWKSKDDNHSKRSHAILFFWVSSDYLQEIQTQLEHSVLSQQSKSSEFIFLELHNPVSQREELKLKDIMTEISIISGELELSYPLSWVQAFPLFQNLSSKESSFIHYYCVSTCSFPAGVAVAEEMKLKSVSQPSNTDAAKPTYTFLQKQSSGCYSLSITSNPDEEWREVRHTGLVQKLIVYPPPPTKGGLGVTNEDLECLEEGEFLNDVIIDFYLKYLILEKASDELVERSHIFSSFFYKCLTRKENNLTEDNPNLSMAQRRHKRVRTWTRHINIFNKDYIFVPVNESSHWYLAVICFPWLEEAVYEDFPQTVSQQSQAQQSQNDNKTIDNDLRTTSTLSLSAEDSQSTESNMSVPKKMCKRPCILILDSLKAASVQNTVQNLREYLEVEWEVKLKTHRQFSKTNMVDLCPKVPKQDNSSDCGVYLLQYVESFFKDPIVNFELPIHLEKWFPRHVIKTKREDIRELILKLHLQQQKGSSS

[4] = target: T5, RNA-binding protein pos-1 (Caenorhabditis elegans, UniProt G5EF15); experiment: disruptors of C. elegans POS-1 RNA interaction – biochemical, fluorescence polarization, dose response (AID 1964);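 further: purified POS-1 fused to maltose binding protein made in E. coli; potency of compounds blocking POS-1 binding to fluorescent RNA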
T5 sequence (G5EF15 whole entry): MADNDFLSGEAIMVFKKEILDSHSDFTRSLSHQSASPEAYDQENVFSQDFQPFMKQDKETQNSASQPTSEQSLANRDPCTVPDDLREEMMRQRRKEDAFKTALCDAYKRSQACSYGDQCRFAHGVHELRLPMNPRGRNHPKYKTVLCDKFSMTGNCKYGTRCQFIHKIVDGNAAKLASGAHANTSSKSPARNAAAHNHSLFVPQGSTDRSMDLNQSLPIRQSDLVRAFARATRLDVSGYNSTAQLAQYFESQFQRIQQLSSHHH

[5] = target: T6, Zinc finger protein mex-5 (Caenorhabditis elegans, UniProt Q9XUB2); experiment: potency of MEX-5 RNA-binding blockers – biochemical, C. elegans, fluorescence polarization, dose response (AID 1960)
T6 sequence (Q9XUB2 whole entry): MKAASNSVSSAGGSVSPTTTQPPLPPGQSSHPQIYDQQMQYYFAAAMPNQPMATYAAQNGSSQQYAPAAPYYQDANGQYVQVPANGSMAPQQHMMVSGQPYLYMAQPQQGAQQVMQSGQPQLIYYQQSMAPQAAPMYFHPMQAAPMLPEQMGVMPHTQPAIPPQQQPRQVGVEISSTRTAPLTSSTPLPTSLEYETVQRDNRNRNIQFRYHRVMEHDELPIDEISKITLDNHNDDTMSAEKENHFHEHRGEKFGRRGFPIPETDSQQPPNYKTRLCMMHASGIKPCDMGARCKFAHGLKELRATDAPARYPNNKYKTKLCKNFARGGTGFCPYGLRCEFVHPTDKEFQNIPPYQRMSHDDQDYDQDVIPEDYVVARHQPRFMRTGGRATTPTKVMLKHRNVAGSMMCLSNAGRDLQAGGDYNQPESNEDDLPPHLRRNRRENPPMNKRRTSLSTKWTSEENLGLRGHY

CHO-K1 = experiment: (§1) Counterscreen for antagonists of the orexin 1 receptor (OX1R; HCRTR1): Homogeneous time resolved fluorescence (HTRF)-based cell-based dose response assay to identify antagonists of the parental CHO-K1 cell line. [Related pubchem assays (depositor defined):AID434989, AID435008, AID463079, AID485270, AID492963, AID492964, AID492965, AID493232, AID504699, AID504701]; type: functional; conditions: Cricetulus griseus
[6] = as §1, with “Fluorescence-based” for “Homogeneous time resolved fluorescence (HTRF)-based”, “cell-based high throughput” for “cell-based”, “CHO” for “CHO-K1”; type: functional
[7] = target: T7, Orexin/Hypocretin receptor type 1 (Homo sapiens, UniProt O43613); experiment: Homogeneous Time Resolved Fluorescence (HTRF)-based cell-based high throughput dose response assay for antagonists of the orexin 1 receptor (OX1R; HCRTR1). [Related pubchem assays (depositor defined):AID434989, AID435008, AID463079, AID485270, AID492963, AID492964, AID492965, AID493232, AID504717, AID504718]; type: functional
T7 sequence (O43613 whole entry): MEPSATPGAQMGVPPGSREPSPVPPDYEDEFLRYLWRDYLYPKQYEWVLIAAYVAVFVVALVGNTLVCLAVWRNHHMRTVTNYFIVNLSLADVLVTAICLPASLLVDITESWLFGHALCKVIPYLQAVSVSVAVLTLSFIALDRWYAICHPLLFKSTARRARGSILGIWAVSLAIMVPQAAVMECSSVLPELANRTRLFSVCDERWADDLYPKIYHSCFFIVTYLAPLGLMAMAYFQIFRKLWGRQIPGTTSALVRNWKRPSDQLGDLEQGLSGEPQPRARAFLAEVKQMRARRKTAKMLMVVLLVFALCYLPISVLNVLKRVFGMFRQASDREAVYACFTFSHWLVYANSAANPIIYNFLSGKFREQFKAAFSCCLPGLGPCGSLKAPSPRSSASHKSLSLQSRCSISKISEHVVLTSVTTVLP

[8] = target: T7, Orexin/Hypocretin receptor type 1; experiment: Fluorescence-based cell-based high throughput dose response assay for antagonists of the orexin 1 receptor (OX1R; HCRTR1). [Related pubchem assays (depositor defined):AID434989, AID435008, AID463079, AID485270, AID492963, AID492964, AID492965, AID493232, AID504717, AID504718]; type: functional
[9] = target: T8, Polyadenylate-binding protein 1 (Homo sapiens, UniProt P11940); experiment: MLLE binding blockers, Cy5 peptide tracer – biochemical, fluorescence polarization, Cy5-PAM2 peptide, secondary, miRNA deadenylation inhibitor project, dose response (AID 602260); type: functional; conditions: read-out: IC50_Mean
T8 sequence (P11940 whole entry, the tested form may be a part): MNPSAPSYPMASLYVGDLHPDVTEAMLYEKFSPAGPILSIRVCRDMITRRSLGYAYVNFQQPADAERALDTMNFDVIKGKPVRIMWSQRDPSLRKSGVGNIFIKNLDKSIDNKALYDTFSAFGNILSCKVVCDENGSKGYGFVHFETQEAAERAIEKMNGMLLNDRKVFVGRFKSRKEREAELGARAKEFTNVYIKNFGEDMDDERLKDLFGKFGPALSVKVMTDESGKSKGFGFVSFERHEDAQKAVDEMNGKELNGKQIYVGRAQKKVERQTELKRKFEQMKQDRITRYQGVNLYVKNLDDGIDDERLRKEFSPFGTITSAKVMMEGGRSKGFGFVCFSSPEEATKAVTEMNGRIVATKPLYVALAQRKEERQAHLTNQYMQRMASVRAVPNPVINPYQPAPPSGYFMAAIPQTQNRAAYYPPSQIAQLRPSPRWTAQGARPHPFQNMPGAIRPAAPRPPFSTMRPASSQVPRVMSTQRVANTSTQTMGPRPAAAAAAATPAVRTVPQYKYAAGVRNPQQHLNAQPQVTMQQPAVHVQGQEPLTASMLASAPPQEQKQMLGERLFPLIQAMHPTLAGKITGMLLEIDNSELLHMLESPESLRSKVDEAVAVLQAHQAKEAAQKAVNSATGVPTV

[10] = target: T8, Polyadenylate-binding protein 1; experiment: MLLE domain peptide-binding blockers, IC50 – biochemical, fluorescence polarization, FITC-PAM2 peptide, dose response (AID 602259); type: functional; conditions: read-out: IC50_Mean
Orexin receptor type 2 [11] = target: T9, Orexin receptor type 2 (Homo sapiens, UniProt O43614); experiment: Counterscreen assay for antagonists of the orexin 1 receptor (OX1R; HCRTR1): Fluorescence-based cell-based dose response assay for antagonists of the orexin 2 receptor (OX2R; HCRTR2), run by assay provider.; type: functional
T9 sequence (O43614 whole entry): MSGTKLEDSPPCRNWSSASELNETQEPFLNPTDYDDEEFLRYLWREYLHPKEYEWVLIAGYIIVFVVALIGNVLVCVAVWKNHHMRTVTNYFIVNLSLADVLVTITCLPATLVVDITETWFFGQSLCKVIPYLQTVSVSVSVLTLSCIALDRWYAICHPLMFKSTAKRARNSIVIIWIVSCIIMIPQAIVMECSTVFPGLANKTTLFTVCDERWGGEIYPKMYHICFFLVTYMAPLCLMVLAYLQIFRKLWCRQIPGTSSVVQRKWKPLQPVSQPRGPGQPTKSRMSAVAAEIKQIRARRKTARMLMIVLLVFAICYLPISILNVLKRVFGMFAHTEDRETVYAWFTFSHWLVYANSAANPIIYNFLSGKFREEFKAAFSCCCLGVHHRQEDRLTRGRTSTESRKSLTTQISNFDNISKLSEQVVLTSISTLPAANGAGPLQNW

Orexin receptor type 2 [12] = target: T9, Orexin receptor type 2; experiment: Counterscreen assay for antagonists of the orexin 1 receptor (OX1R; HCRTR1): Homogeneous Time Resolved Fluorescence (HTRF)-based cell-based dose response assay for antagonists of the orexin 2 receptor (OX2R; HCRTR2), run by assay provider.; type: functional
[13] = target: ALK tyrosine kinase receptor (Homo sapiens, UniProt Q9UM73); type: functional;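 further: ALK tested as one member of a kinase panel screen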
Chain of ALK tyrosine kinase receptor (Q9UM73 whole entry): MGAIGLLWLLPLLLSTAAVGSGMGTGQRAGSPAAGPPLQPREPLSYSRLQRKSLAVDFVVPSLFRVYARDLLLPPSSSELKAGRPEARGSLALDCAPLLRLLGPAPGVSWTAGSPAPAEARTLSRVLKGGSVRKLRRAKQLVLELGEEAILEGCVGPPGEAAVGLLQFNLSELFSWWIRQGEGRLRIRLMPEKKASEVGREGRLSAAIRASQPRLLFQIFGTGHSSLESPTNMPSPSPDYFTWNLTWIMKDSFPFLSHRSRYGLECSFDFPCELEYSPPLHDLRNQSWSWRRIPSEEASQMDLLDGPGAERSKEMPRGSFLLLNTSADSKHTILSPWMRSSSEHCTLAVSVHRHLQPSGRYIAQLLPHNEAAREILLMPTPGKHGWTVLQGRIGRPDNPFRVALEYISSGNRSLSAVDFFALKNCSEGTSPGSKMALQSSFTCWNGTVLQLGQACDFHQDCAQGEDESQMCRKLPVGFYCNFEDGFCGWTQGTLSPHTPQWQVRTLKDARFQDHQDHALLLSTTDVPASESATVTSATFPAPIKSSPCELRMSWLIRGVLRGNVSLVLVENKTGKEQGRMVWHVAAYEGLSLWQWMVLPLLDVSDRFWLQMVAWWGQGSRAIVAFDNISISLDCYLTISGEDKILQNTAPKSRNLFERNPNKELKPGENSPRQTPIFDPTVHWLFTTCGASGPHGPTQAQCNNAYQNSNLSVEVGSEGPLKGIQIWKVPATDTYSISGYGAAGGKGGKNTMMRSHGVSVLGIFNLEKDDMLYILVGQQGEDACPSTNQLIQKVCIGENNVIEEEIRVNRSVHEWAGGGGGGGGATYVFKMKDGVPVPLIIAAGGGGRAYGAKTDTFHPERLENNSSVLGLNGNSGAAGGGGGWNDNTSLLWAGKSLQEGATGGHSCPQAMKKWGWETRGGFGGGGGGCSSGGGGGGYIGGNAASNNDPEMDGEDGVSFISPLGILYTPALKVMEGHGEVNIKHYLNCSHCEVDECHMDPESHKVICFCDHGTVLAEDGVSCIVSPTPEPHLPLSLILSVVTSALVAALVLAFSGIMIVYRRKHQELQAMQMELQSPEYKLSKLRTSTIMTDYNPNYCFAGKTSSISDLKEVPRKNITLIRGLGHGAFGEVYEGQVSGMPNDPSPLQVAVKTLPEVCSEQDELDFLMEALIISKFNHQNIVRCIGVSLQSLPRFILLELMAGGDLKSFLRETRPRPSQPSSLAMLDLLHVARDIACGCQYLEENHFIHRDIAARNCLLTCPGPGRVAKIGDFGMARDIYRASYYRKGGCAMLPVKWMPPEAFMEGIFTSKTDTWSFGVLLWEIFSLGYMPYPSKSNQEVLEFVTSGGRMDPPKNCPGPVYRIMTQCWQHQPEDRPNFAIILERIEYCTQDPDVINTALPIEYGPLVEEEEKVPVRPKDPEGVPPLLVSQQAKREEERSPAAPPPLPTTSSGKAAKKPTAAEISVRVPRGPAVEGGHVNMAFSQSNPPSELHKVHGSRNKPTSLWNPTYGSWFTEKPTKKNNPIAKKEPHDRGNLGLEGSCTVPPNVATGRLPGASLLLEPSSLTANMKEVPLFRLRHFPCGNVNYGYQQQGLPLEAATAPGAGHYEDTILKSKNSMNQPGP

[14] = target: Cell division cycle 7-related protein kinase (Homo sapiens, UniProt O00311); type: functional;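 further: value obtained from a kinome-wide kinase panel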
Chain of Cell division cycle 7-related protein kinase (O00311 whole entry): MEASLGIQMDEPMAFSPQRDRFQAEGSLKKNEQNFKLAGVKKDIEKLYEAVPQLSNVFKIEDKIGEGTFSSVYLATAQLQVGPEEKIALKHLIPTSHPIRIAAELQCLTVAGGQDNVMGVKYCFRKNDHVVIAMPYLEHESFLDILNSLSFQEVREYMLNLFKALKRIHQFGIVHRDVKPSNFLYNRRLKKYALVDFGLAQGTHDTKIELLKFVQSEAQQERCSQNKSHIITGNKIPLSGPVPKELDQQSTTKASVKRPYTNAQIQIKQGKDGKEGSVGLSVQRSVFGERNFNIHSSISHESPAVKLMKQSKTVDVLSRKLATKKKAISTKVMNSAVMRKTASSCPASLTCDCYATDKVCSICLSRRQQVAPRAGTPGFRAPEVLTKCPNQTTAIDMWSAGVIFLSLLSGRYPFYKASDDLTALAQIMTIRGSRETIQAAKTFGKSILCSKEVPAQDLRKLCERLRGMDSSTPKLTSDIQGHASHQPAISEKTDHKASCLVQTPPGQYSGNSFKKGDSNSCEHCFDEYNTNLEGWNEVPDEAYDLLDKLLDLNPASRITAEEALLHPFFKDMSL

SMILES: CC1CC(C)CN(S(=O)(=O)c2ccc(C(=O)Nc3nc4ccc(C(C)C)cc4s3)cc2)C1 (stereo unspecified)
- IC50 [1]: > 99 µM (inactive)
- IC50 (Caspase-3): > 99 µM (inactive)
- IC50 [2]: > 99 µM (inactive)
- IC50 [3]: > 99 µM (inactive)

SMILES: COc1ccc(/C=c2\sc3nc(-c4ccccc4OC)nn3c2=O)c(OC)c1
- EC50 [4]: 21.5 µM (active)
- EC50 [5]: 31.4 µM (active)
- IC50 (CHO-K1): > 66.2 µM (inactive)
- IC50 [6]: > 49.8 µM (inactive)
- IC50 [7]: 0.723 µM (active)
- IC50 [8]: 0.526 µM (active)
- IC50 [9]: > 66 µM (inactive)
- IC50 [10]: 48.3 µM (inactive)
- IC50 (Orexin receptor type 2 [11]): 33.5 µM (inactive)
- IC50 (Orexin receptor type 2 [12]): > 50 µM (inactive)

SMILES: CS(=O)(=O)c1ccccc1Nc1nc(Nc2ccccc2)ncc1Cl
- Ki [13]: 0.316 µM (active)
- Ki [14]: > 3.98 µM (inactive)
